Reference: paper PMC5716539, “The acute glucose lowering effect of specific GPR120 activation in mice is mainly driven by glucagon-like peptide 1” (PLoS ONE, 2017)

What was measured:
[1] = system: dispersed wt mouse islets cell; assay: cAMP production in dispersed wild type mouse islet cells; format: cell-based; conditions: 10 μM agonist, vs control cells
Method: Mouse islets were isolated from pancreas by collagenase digestion, handpicked under microscope following multiple washing steps and dispersed to single cells using TrypLE Express (Gibco). The dispersed islet cells (20 000 cells/well) were incubated with the GPR120 agonists for 30 min in 96-well black plates (Corning) at 37°C in Krebs ringer phosphate Hepes buffer, pH 7.4, with 11 mM Glucose, 0.1% BSA and 0.5 mM 3-isobutyl-1-methylxanthine followed by addition of d2-labeled cAMP and anti-cAMP Cryptate in conjugation and lysis buffer (Cisbio). Produced cAMP was detected with homogenous time resolved fluorescence (HTRF) (λex = 340 nm, λem = 665 and 615 nm) using a Pherastar (BMG Labtech).

[2] = Pharmacokinetic properties; format: in vivo, mice; conditions: insufficient for chronic treatment
human GPR120 [3] = molecular target: T1, human GPR120 (Homo sapiens, UniProt Q5NUL3); assay: Calcium mobilization assay in CHO-hGPR120 cells; format: cell-based; conditions: for Calcium mobilization after Gαq inhibition: CHO-hGPR120 cells pre-treated with 1 μM QIC; for EC50: CHO-hGPR120 cells, mean ± SEM
T1 construct: expressed in transfected cells
T1 sequence (Q5NUL3 1-361): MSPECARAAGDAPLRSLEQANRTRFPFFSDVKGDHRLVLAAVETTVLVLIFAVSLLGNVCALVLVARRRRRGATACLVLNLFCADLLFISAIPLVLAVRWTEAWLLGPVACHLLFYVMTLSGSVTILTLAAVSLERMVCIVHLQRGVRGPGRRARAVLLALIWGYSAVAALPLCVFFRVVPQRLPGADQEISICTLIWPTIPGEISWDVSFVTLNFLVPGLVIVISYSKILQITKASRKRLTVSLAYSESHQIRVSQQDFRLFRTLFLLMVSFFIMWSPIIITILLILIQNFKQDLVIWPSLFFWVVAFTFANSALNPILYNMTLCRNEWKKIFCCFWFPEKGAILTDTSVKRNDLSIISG
Method: (§1) CHO-hGPR120 and CHO cells were cultured in DMEM/F-12 (Invitrogen) with 10% FBS (Sigma) and HEK293-mGPR40 in DMEM (Invitrogen) supplemented with 10% FBS in 384-well poly-D-Lysin coated microplates (Greiner) at 37°C, 95% humidity and 5% CO2. After 19 hours cell media was replaced with Calcium4 dye (Molecular Devices) in HBSS (Invitrogen), 20 mM HEPES (Invitrogen), pH 7.4 and 1.25 mM Probenecid (Sigma). After 1 hour at room temperature agonists were added and calcium mobilization was detected as change in fluorescence (λex = 488 and λem = 540 nm) using a FLIPR^TETRA (Molecular Devices).

human GPR120 [4] = molecular target: T1, human GPR120; assay: cAMP assay in CHO-hGPR120 cells; format: cell-based; conditions: cAMP production in CHO-hGPR120 cells; mean ± SEM
Method: CHO-hGPR120 or CHO cells in HBSS (Invitrogen), 20 mM HEPES (Invitrogen), pH 7.4, 0.01% BSA, 1.5 mM 3-isobutyl-1-methylxanthine (Sigma) and d2-labeled cAMP (CisBio) were incubated with GPR120 agonists (1% DMSO) for 45 min at room temperature in white small-volume 384-well plates (Greiner). The reaction was terminated by addition of conjugate and lysis buffer (CisBio) supplemented with anti-cAMP Cryptate (CisBio).

STC-1 cells = assay: GLP-1 secretion from STC-1 cells; format: cell-based, mouse; conditions: 2 hours, active GLP-1, vs 0.1% DMSO
Method: STC-1 cells were cultured in DMEM (Invitrogen) supplemented with 10% horse serum (ThermoFisher Scientific), 2.5% FBS (Hyclone) and 1% Penicillin/Streptomycin in 96-well poly-D-Lysine coated plates to 80–90% confluence at 37°C, 5% CO2. Cells were washed and pre-incubated in assay buffer (HBSS with Ca^2+ and Mg^2+ containing 20 mM HEPES, 0.1% BSA (Sigma) and 20 nM sitagliptin (dipeptidyl peptidase 4 (DPP-4) inhibitor), for 30 min in 37°C. GPR120 agonists were added and cells were incubated for 2 hours in 37°C. DMSO (0.1%) was used as control. GLP-1 secretion was measured in the supernatants (GLP-1 active, Millipore) by fluorescence detection. Concentration of active GLP-1 was derived by interpolation from a GLP-1 standard curve.

human GPR120 [5] = molecular target: T1, human GPR120; assay: DMR (dynamic mass redistribution) assay in CHO-hGPR120 cells; format: cell-based; conditions: for DMR response after Gαs inhibition: CHO-hGPR120 cells treated with CTX; for DMR response after Gαi inhibition: CHO-hGPR120 cells treated with PTX; for DMR response after Gαq inhibition: CHO-hGPR120 cells treated with QIC; for EC50: mean ± SEM
human GPR40 = human GPR40 (Homo sapiens, UniProt O14842); assay: DMR assay in CHO-hGPR40 cells; format: cell-based
human GPR40, sequence (O14842 whole entry): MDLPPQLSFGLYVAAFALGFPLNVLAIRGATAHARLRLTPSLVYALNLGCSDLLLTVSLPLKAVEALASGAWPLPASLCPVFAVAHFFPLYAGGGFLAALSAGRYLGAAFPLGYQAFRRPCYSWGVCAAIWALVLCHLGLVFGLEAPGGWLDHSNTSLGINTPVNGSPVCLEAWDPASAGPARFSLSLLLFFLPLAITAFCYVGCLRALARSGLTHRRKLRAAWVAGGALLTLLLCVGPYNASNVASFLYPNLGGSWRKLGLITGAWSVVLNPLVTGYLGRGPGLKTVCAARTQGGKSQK
Method: DMR (dynamic mass redistribution) was measured by resonant waveguide grating (RWG) using an Epic biosensor (Corning). CHO-hGPR120, CHO-mGPR120 and CHO cells in DMEM/F-12 (Invitrogen) were cultured in fibronectin coated 384-well Epic plates (Corning) at 37°C, 95% humidity and 5% CO2 for 5 hours with 10% FBS (Sigma), followed by 19 hours without FBS. CHO-hGPR40 cells were cultured at 37°C, 95% humidity and 5% CO2 for 20–24 hours in Ham’s F-12 Nutrient Mix with GlutaMAX (Invitrogen) supplemented with Non-Essential Amino Acids (Gibco) and 10% FBS (Sigma) in fibronectin coated 384-well Epic plates (Corning). Following the incubations culture media was replaced with HBSS (Invitrogen), 20 mM HEPES (Invitrogen), pH 7.4 and 1% DMSO and equilibrated to 26°C in the Epic for thirty min before addition of agonists and detection of DMR.

lean mice = assay: Plasma total GLP-1 levels after oral administration in mice; format: in vivo, mouse; conditions: 30 min after AZ13581837 or 60 min after Metabolex-36, oral, vs respective control group
Method: In separate experiments, mice were pretreated with the GLP-1 receptor antagonist exendin 9–39 (30 nmol/kg, Bachem; intraperitoneally) alone or in combination with the GPR120 agonists, 15 min prior to the IVGTT. Insulin and glucose were measured 0, 1, 5, 10, 20 and 40 min after intravenous (iv) glucose administration. In separate groups of mice total GLP-1 levels were measured 60 min after oral administration of Metabolex-36 or 30 min after AZ13581837 and in corresponding vehicle (0.5% HPMC, 0.1% Tween-80) dosed mice. Blood samples were collected in EDTA coated tubes, centrifuged at 10000xg for 4 min, and plasma was separated and stored frozen until analyzed.
Glucose was measured using a glucometer (AccuCheck, Bayer). Circulating hormones were measured using specific ELISA kits; insulin (ultra-sensitive mouse insulin, Crystal Chemistry), and total and active GLP-1 (Millipore).

control CHO cells = assay: Calcium mobilization assay in control CHO cells; format: cell-based, Chinese hamster
Method: as §1

mouse GPR40 = molecular target: T2, mouse GPR40 (Mus musculus, UniProt Q76JU9); assay: Calcium mobilization assay in HEK293-mGPR40 cells; format: cell-based
T2 construct: expressed in transfected cells
T2 sequence (Q76JU9 whole entry): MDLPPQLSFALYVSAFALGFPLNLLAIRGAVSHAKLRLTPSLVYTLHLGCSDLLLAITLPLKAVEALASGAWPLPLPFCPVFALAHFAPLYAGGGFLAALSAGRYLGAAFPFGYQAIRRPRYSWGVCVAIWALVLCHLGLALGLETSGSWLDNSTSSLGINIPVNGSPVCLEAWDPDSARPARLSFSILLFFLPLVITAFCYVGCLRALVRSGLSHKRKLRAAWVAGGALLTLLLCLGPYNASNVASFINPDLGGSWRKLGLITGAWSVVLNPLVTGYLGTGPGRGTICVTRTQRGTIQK
Method: as §1

Molecule | cAMP production in dispersed wt mouse islet cells [1] | Pharmacokinetic properties (half-life) [2] | Calcium mobilization after Gαq inhibition (human GPR120 [3]) | EC50 (human GPR120 [3]) [nM] | EC50 (human GPR120 [4]) [nM] | GLP-1 secretion from STC-1 cells (STC-1 cells) | DMR response after Gαs inhibition (human GPR120 [5]) | DMR response after Gαi inhibition (human GPR120 [5]) | DMR response after Gαq inhibition (human GPR120 [5]) | EC50 (human GPR120 [5]; CHO-hGPR120 cells) [nM] | DMR response in CHO-hGPR40 cells (human GPR40) | Total GLP-1 levels (lean mice) | Calcium response in control CHO cells (control CHO cells) | Activation of mouse GPR40 in calcium mobilization assay (mouse GPR40) | Potency relative to Metabolex-36 in DMR response (human GPR120 [5]; CHO-hGPR120 cells, fold more potent than Metabolex-36)
3-(3,5-difluoro-4-((3-methyl-1-phenyl-1H-pyrazol-5-yl)methoxy)phenyl)-2-methylpropanoic acid [Metabolex-36] | significantly reduced cAMP production | short half-life | completely abolished | 1800 ± 190 | 6700 ± 1000 | significantly increased GLP-1 secretion | partly blocked | did not result in any significant decrease | only partly reduced | 570 ± 150 | Neither AZ13581837 nor Metabolex-36 were able to induce a DMR response | significant increase | no response | did not activate | 
C#Cc1cc(Oc2cccnc2)cc(N2Cc3ccccc3S2(=O)=O)c1 [AZ13581837, 2-(3-ethynyl-5-(3-pyridyloxy)phenyl)-3H-1,2-benzothiazole 1,1-dioxide] | significantly reduced cAMP production | short half-life | completely abolished | 120 ± 20 | 60 ± 7 | significantly increased GLP-1 secretion | partly blocked | did not result in any significant decrease | only partly reduced | 5.2 ± 0.6 | Neither AZ13581837 nor Metabolex-36 were able to induce a DMR response | significant increase | no response | did not activate | about 100 fold
